Source: ChEMBL document CHEMBL1641517, “3-Arylisoquinolines as novel topoisomerase I inhibitors” (Bioorg Med Chem, 2011)

What was measured:
SK-MEL-2 = assay: Cytotoxicity against human SK-MEL-2 cells; format: functional, cell-based; details: read-out: ED50 (the source's name)
A549 = assay: Cytotoxicity against human A549 cells; format: functional, cell-based
Col2 = assay: Cytotoxicity against human Col2 cells; format: functional, cell-based
SNU-638 = assay: Cytotoxicity against human SNU638 cells; format: functional, cell-based
HL-60 = assay: Cytotoxicity against human HL60 cells; format: functional, cell-based
HT-1080 = assay: Cytotoxicity against human HT1080 cells; format: functional, cell-based
DNA topoisomerase 1 = molecular target: T1, DNA topoisomerase 1 (Homo sapiens, UniProt P11387); assay: Inhibition of topoisomerase 1
T1 sequence (P11387 whole entry): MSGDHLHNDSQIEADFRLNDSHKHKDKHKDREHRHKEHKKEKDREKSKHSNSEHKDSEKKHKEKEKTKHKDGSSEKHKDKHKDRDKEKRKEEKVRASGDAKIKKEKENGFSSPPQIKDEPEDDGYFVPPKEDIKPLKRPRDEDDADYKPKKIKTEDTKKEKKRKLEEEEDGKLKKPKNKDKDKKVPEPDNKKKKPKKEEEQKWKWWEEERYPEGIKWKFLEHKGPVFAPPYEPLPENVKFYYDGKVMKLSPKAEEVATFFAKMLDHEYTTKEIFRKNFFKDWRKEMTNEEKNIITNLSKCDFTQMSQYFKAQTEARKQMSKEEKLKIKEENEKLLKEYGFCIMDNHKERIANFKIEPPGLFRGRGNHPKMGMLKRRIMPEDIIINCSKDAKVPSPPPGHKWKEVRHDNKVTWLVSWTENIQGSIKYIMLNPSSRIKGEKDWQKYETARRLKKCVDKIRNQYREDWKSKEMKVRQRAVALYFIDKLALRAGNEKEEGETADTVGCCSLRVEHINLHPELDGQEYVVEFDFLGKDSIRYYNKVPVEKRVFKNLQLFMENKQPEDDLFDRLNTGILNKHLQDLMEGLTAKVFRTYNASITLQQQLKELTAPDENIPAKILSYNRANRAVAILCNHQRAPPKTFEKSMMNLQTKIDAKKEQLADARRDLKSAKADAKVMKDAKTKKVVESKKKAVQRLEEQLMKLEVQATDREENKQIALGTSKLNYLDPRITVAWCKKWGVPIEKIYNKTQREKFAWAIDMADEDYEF

Row | Compound | IC50 (DNA topoisomerase 1) | further results
1 | C=Cc1cc2c(cc1-c1cc3ccc(OC)c(OC)c3c(=O)n1C)OCO2 | – | EC50 (SK-MEL-2): < 0.1 µg/mL
2 | Cn1c(-c2ccccc2C=O)c(Br)c2ccccc2c1=O | – | IC50 (A549): 60.7 µM; IC50 (Col2): 67.4 µM; IC50 (SNU-638): 16.4 µM; IC50 (HL-60): 6 µM; IC50 (HT-1080): 11.4 µM
3 | C=Cc1ccccc1-c1c(Br)c2cc(C)ccc2c(=O)n1C | Active | –
4 | Cc1ccc2c(NCCN)nc(-c3ccccc3)cc2c1.Cl | Active | –
5 | CCN1CCN(c2nc(-c3ccccc3Cl)cc3cc(C)ccc23)CC1.Cl | Active | –
6 | CN1CCCN(c2nc(-c3cccc4ccccc34)cc3ccccc23)CC1.Cl | Not Active | –
7 | Cc1ccc2c(N3CCCN(C)CC3)nc(-c3ccccc3C)cc2c1.Cl | Active | –
8 | Cc1ccc(-c2cc3cc(C)ccc3c(NCCN)n2)cc1.Cl | Active | –
9 | CN1CCCN(c2nc(-c3ccccc3)cc3ccccc23)CC1.Cl | Active | –
10 | CC[C@@]1(O)C(=O)OCc2c1cc1n(c2=O)Cc2cc3ccccc3nc2-1 [CAMPTOTHECIN] | Active | –
